Results taken from US7399608B2, “Microbial detection and quantification” (Kimberly-Clark Worldwide, Inc., priority 2003, dated 2008).

What was measured:
[1] = test system: bacteria in aged chicken juice; assay: N-docosyl-merocyanine dye coated onto cotton fabric, aged chicken juice; settings: 47 mg in 10 g dimethylformamide, supernatant on woven cotton
[2] = test system: bacteria in aged chicken juice; assay: Dye solution dropped onto aged chicken juice on SCOTT paper towel (comparative examples); settings: comparative dye solution dropped onto aged chicken juice on SCOTT paper towel
[3] = test system: microbes in aged female human urine; assay: N-methylmerocyanine coated onto kitchen paper towel, aged urine
[4] = test system: budgerigar feces suspension; assay: N-methyl merocyanine coated paper towel, pet bird feces suspension; settings: Atlanta city domestic tap water
Protocol: Budgerigar feces was collected from a caged pet budgie, and shaken in approximately 10 ml of Atlanta city domestic tap water. N-methyl merocyanine dye of structure 33 above was synthesized as described above.

Bleach indicator test = type: physicochemical; settings: mixture with Reichardt's dye coated on SCOTT towel

SMILES	color change on aged chicken juice [2]	further results
CCCCCCCCCCCCCCCCCCCCCC[n+]1ccc(C=Cc2ccc(O)cc2)cc1.[Br-]	–	color change of orange-yellow dye spots on cotton [1]: color change to very pale yellow
O=C1/C(=C2\Nc3ccc(S(=O)(=O)[O-])cc3C2=O)Nc2ccc(S(=O)(=O)[O-])cc21.[Na+].[Na+] [Cl Acid Blue 74, Indigo Carmine]	No color changes were observed	–
Cc1ccc(Nc2ccc(Nc3ccc(C)cc3S(=O)(=O)[O-])c3c2C(=O)c2ccccc2C3=O)c(S(=O)(=O)[O-])c1.[Na+].[Na+] [Cl Acid Green 25]	No color changes were observed	–
Cc1ccc(Nc2ccc(Nc3ccc(C)cc3S(=O)(=O)[O-])c3c2C(=O)c2c(O)ccc(O)c2C3=O)c(S(=O)(=O)[O-])c1.[Na+].[Na+] [Cl Acid Green 41]	No color changes were observed	–
CC(=O)Nc1ccc(/N=N/c2c(N)ccc3cc(S(=O)(=O)[O-])cc(O)c23)c(S(=O)(=O)[O-])c1.[Na+].[Na+] [Cl Acid Red 37]	No color changes were observed	–
CCN(CC)c1ccc2c(-c3ccc(S(=O)(=O)O)cc3S(=O)(=O)[O-])c3ccc(=[N+](CC)CC)cc-3oc2c1 [Cl Acid Red 52, sulforhodamine B]	No color changes were observed	–
O=C([O-])C1=NN(c2ccc(S(=O)(=O)[O-])cc2)C(=O)C1N=Nc1ccc(S(=O)(=O)[O-])cc1.[Na+].[Na+].[Na+] (centres unmarked) [Cl Acid Yellow 23, tartrazine]	No color changes were observed	–
COc1cc(/C=C/c2cc[n+](C)cc2)ccc1[O-] [N-methyl merocyanine dye]	–	color change with aged urine filtered through 0.2 micron filter ([3]; urine stored 24 hours at 37° C.): did not cause a color change; color change with aged urine filtered through 0.2 micron filter ([3]; urine stored 8 days at room temperature): did not cause a color change; color of coated towel with tap water control [4]: the area remained orange
Cc1cc(-c2cc(C)c(N)c(C)c2)cc(C)c1N [TMB, reference compound]	–	response of TMB to dilute bleach (Bleach indicator test): turning orange/yellow color
